From ChEMBL document CHEMBL1124228, “Synthesis of (aryloxy)alkylamines. 1. Novel antisecretory agents with H+K+-ATPase inhibitory activity” (J Med Chem, 1988)

Experiments:
Rattus norvegicus [1] = experiment: Percent inhibition of total acid secretion in pylorus-ligated rats at an id dose of 20 mg/kg; assay type: functional; details: route intraduodenal
[2] = target: T1, Potassium-transporting ATPase (Homo sapiens, UniProt P20648); experiment: Antisecretory activity evaluated by the inhibition of 14C -AP uptake in isolated rabbit parietal cells stimulated by exogenous histamine; assay type: functional, Oryctolagus cuniculus
[3] = target: T1, Potassium-transporting ATPase; experiment: (§1) Antisecretory activity evaluated by the inhibition of 14C -AP uptake in isolated rabbit parietal cells stimulated by dibutyryl cyclic adenosine 3', 5' -monophosphate (dcAMP); assay type: functional, Oryctolagus cuniculus
Rattus norvegicus [4] = experiment: Effective dose required for the inhibition of total acid secretion in pylorus-ligated rats at 20 mg/kg; assay type: functional
Rattus norvegicus [5] = experiment: Percent inhibition of total acid secretion in pylorus-ligated rats at an id dose of 40 mg/kg; assay type: functional; details: route intraduodenal
Rattus norvegicus [6] = experiment: Percent inhibition of total acid secretion in pylorus-ligated rats at an id dose of 10 mg/kg; assay type: functional; details: route intraduodenal
[7] = target: T2, Potassium-transporting ATPase (Homo sapiens, UniProt P20648+P51164); experiment: as §1; assay type: functional, Oryctolagus cuniculus; details: target entry is the homologue from another species
T2 sequence (P20648 whole entry): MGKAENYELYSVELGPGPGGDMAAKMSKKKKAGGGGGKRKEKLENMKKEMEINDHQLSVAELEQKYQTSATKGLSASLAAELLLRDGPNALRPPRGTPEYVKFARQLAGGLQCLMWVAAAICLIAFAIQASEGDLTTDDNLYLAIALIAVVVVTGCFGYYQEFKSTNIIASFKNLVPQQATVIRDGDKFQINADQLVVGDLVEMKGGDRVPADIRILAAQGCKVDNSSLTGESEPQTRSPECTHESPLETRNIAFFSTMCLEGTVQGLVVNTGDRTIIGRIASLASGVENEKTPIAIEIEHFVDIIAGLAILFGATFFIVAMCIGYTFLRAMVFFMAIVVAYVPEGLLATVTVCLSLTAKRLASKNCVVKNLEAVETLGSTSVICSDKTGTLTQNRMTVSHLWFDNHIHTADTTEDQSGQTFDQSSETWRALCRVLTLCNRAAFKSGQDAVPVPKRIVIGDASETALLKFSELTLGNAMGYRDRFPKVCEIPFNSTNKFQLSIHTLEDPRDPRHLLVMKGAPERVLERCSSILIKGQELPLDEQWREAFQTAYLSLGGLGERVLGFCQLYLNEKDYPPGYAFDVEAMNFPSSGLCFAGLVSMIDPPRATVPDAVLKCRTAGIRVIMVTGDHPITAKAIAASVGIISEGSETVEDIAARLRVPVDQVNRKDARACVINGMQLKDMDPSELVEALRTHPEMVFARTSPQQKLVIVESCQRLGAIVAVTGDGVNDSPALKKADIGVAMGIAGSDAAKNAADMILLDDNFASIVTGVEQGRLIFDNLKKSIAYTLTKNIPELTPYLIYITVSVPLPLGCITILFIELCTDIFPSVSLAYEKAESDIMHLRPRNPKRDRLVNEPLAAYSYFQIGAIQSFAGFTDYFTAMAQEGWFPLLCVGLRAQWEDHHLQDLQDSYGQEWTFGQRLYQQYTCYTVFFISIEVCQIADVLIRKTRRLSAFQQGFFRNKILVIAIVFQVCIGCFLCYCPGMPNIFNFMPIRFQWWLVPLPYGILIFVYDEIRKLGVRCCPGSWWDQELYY
T2 sequence (P51164 whole entry): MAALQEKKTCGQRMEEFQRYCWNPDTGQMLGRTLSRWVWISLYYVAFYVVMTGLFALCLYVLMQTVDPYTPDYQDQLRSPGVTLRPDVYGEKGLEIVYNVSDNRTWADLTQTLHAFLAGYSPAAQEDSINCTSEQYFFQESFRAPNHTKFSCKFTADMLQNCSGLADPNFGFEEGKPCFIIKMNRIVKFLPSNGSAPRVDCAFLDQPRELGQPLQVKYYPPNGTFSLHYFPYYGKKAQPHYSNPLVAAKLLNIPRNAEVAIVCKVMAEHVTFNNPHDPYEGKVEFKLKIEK

Rattus norvegicus [8] = species: Rattus norvegicus; experiment: Effective dose required for the inhibition of total acid secretion in pylorus-ligated rats; assay type: functional
Rattus norvegicus [9] = experiment: Effective dose required for the inhibition of total acid secretion in pylorus-ligated rats at 40 mg/kg; assay type: functional
[10] = target: T2, Potassium-transporting ATPase; experiment: Evaluated for the inhibition of H+/K+ ATPase enzyme from fundic mucosa of white rabbits at 100 uM; assay type: protein-complex assay; details: Oryctolagus cuniculus, target entry is the homologue from another species
[11] = target entry is the homologue from another species

Row | SMILES | inhibition in vivo at 20 mg/kg (Rattus norvegicus [1]) [%] | IC50 [2, 11] [nM] | IC50 [3, 11] [nM] | other results
1 | c1cncc(-c2nc(-c3ccc(OCCCn4ccnc4)cc3)cs2)c1 | 53 | 3300 | 3000 | –
2 | C(=C\c1nc2ccccc2s1)/c1ccc(OCCCN2CCCCC2)cc1 | 32 | 180 | 210 | –
3 | CCCN(CCC)CCCOc1ccc(/C=C/c2nc3ccccc3s2)cc1 | – | 210 | 140 | inhibition in vivo at 20 mg/kg (Rattus norvegicus [4]): 42%
4 | C(=C\c1nc2ccccc2o1)/c1ccc(OCCCCN2CCCCC2)cc1 | 42 | 170 | 330 | –
5 | CCCCN(CCCC)CCCOc1ccc(-c2csc(-c3ccc(Cl)cc3)n2)cc1 | 40 | 2100 | 1800 | –
6 | COc1ccc2[nH]c([S+]([O-])Cc3ncc(C)c(OC)c3C)nc2c1 (stereo not given) [OMEPRAZOLE] | – | – | – | ED50 (Rattus norvegicus [4]): 7.1 mg/kg
7 | CCCCN(CCCC)CCCOc1ccc(-c2nc3ccccc3s2)cc1 | – | 250 | 2600 | –
8 | CCCCN(CCCC)CCCOc1ccc(-c2csc(-c3ccc(C(F)(F)F)cc3)n2)cc1 | – | 2900 | 2000 | inhibition in vivo at 40 mg/kg (Rattus norvegicus [5]): 40%
9 | CCCCN(CCCC)CCCOc1ccc(-c2nc(-c3ccccc3)sc2CC)cc1 | – | 340 | 240 | –
10 | C(=C\c1nc2ccccc2o1)/c1ccc(OCCCCn2ccnc2)cc1 | 14 | 270 | 330 | –
11 | c1ccc(-c2nc(-c3ccc(OCCCn4ccnn4)cc3)cs2)cc1 | – | 10000 | – | inhibition in vivo at 10 mg/kg (Rattus norvegicus [6]): 72%
12 | C(=C\c1nc2ccccc2s1)/c1ccc(OCCCn2ccnc2)cc1 | 22 | 130 | 340 | –
13 | C(=C\c1nc2ccccc2s1)/c1ccc(OCCCCn2ccnc2)cc1 | – | 200 | 260 | inhibition in vivo at 40 mg/kg (Rattus norvegicus [5]): 17%
14 | CCCCN(CCCC)CCCCOc1ccc(/C=C/c2nc3ccccc3o2)cc1 | – | 180 | – | IC50 [7]: < 10000 nM; inhibition in vivo at 40 mg/kg (Rattus norvegicus [5]): 14%
15 | FC(F)(F)c1ccc(-c2nc(-c3ccc(OCCCn4ccnc4)cc3)cs2)cc1 | 27 | 370 | 620 | –
16 | CN/C(=N\CCSCc1nc[nH]c1C)NC#N [CIMETIDINE] | – | – | – | IC50 [2]: 820 nM; IC50 [3]: > 100000 nM; ED50 (Rattus norvegicus [8]): 32 mg/kg
17 | CCCCN(CCCC)CCCOc1ccc(/C=C/c2nc3cc(Cl)ccc3s2)cc1 | 26 | 400 | 500 | –
18 | C(=C\c1nc2ccccc2s1)/c1ccc(OCCCCN2CCCC2)cc1 | 20 | 160 | 260 | –
19 | CCN(CC)CCCCOc1ccc(/C=C/c2nc3ccccc3s2)cc1 | 52 | 180 | 350 | –

Row | SMILES | inhibition in vivo at 20 mg/kg (Rattus norvegicus [1]) [%] | IC50 [2, 11] [nM] | IC50 [3, 11] [nM] | other results
20 | CCN(CC)CCCOc1ccc(-c2csc(-c3ccccc3)n2)cc1 | – | 120 | 90 | inhibition in vivo at 40 mg/kg (Rattus norvegicus [5]): 82%
21 | CCCCN(CCCC)CCCOc1ccc(/C=C/c2nc3cc(C)ccc3o2)cc1 | – | 260 | 340 | inhibition in vivo at 40 mg/kg (Rattus norvegicus [5]): 88%
22 | Cl.O.c1ccc(-c2nc(-c3ccc(OCCCn4ccnc4)cc3)cs2)cc1 | – | 80 | 20 | ED50 (Rattus norvegicus [4]): 5.1 mg/kg; inhibition in vivo at 20 mg/kg (Rattus norvegicus [4]): 91%
23 | CCN(CC)CCCOc1ccc(/C=C/c2nc3ccccc3s2)cc1 | – | 370 | 150 | inhibition in vivo at 40 mg/kg (Rattus norvegicus [5]): 71%
24 | CCCN(CCC)CCCOc1ccc(-c2csc(-c3ccccc3)n2)cc1 | – | 230 | 180 | inhibition in vivo at 40 mg/kg (Rattus norvegicus [5]): 94%
25 | C(=C\c1nc2ccccc2o1)/c1ccc(OCCCCN2CCCC2)cc1 | – | 170 | 240 | inhibition in vivo at 40 mg/kg (Rattus norvegicus [5]): 24%
26 | CCCN(CCC)CCCCOc1ccc(/C=C/c2nc3ccccc3s2)cc1.Cl.O | – | 30 | 120 | inhibition in vivo at 40 mg/kg (Rattus norvegicus [5]): 93%; ED50 (Rattus norvegicus [8]): 13.6 mg/kg
27 | CCCN(CCC)CCCOc1ccc(/C=C/c2nc3ccccc3o2)cc1 | 77 | 220 | 350 | –
28 | CCN(CC)CCCOc1ccc(/C=C/c2nc3ccccc3o2)cc1 | – | 320 | 980 | inhibition in vivo at 40 mg/kg (Rattus norvegicus [5]): 54%
29 | CCCN(CCC)CCCOc1ccc(-c2nc3ccccc3s2)cc1 | – | 210 | 140 | inhibition in vivo at 40 mg/kg (Rattus norvegicus [9]): 42%
30 | CCCCN(CCCC)CCCOc1ccc(/C=C/c2nc3ccc(OC)cc3o2)cc1 | – | 80 | 50 | inhibition in vivo at 40 mg/kg (Rattus norvegicus [5]): 64%
31 | CCCCN(CCCC)CCCOc1ccc(-c2csc(-c3ccccc3)n2)cc1.Cl | – | 450 | 420 | ED50 (Rattus norvegicus [4]): 17 mg/kg; inhibition in vivo at 20 mg/kg (Rattus norvegicus [4]): 75%
32 | CCCCN(CCCC)CCCOc1ccc(/C=C/c2nc3ccc(OC)cc3s2)cc1 | 31 | 260 | 460 | –
33 | CCCN(CCC)CCCCOc1ccc(/C=C/c2nc3ccccc3o2)cc1.Cl | 90 | 390 | 110 | ED50 (Rattus norvegicus [8]): 11.5 mg/kg
34 | CCCCN(CCCC)CCOc1ccc(/C=C/c2nc3ccccc3o2)cc1 | 43 | 260 | 540 | –
35 | CCCCN(CCCC)CCCOc1ccc(/C=C/c2nc3ccccc3s2)cc1 | 40 | 250 | 260 | –
36 | CCN(CC)CCCCOc1ccc(/C=C/c2nc3ccccc3o2)cc1 | 31 | 80 | 120 | –
37 | CCCCN(CCCC)CCCOc1ccc(/C=C/c2nc3ccccc3[nH]2)cc1 | 2.8 | 2300 | 1500 | –
38 | CCCCN(CCCC)CCCOc1ccc(-c2csc(-c3ccc(C)cc3)n2)cc1 | 41 | 1500 | 3000 | –

Row | SMILES | inhibition in vivo at 20 mg/kg (Rattus norvegicus [1]) [%] | IC50 [2, 11] [nM] | IC50 [3, 11] [nM] | other results
39 | CNC(=C[N+](=O)[O-])NCCSCc1ccc(CN(C)C)o1 [RANITIDINE] | – | 40 | – | ED50 (Rattus norvegicus [4]): 9.1 mg/kg
40 | C(=C\c1nc2ccccc2o1)/c1ccc(OCCCCCn2ccnc2)cc1 | 45 | 280 | 230 | –
41 | CCCCN(CCCC)CCCCCOc1ccc(-c2csc(-c3ccccc3)n2)cc1 | 54 | 490 | 860 | –
42 | c1ccc(-c2nc(-c3ccc(OCCCCn4ccnc4)cc3)cs2)cc1 | – | 820 | 310 | inhibition in vivo at 40 mg/kg (Rattus norvegicus [5]): 31%
43 | CCCCN(CCCC)CCCOc1ccc(/C=C/c2nc3ccccc3n2C)cc1 | 1.6 | 800 | 2600 | –
44 | C(=C\c1nc2ccccc2o1)/c1ccc(OCCCn2ccnc2)cc1 | – | 290 | 250 | inhibition in vivo at 20 mg/kg (Rattus norvegicus [4]): 26%
45 | CCCCN(CCCC)CCCOc1ccc(/C=C/c2nc3ccccc3o2)cc1 | – | 150 | 150 | inhibition in vivo at 40 mg/kg (Rattus norvegicus [5]): 96%
46 | CCCCN(CCCC)CCOc1ccc(/C=C/c2nc3ccccc3s2)cc1 | – | 430 | 600 | inhibition in vivo at 20 mg/kg (Rattus norvegicus [4]): 14%
47 | CCCCN(CCCC)CCOc1ccc(-c2csc(-c3ccccc3)n2)cc1 | 41 | 310 | 350 | –
48 | CCCCN(CCCC)CCCOc1ccc(/C=C/c2nc3cc(C)ccc3s2)cc1 | 14 | 290 | 530 | –
49 | c1ccc(-c2nc(-c3ccc(OCCCN4CCCCC4)cc3)cs2)cc1 | 46 | 110 | 50 | –
50 | CCCCN(CCCC)CCCCOc1ccc(-c2csc(-c3ccccc3)n2)cc1 | 56 | 130 | 120 | –
51 | CCCCN(CCCC)CCCOc1ccc(-c2csc(-c3cc(OC)cc(OC)c3)n2)cc1 | 17 | 260 | 540 | –
52 | c1ccc(-c2nc(-c3ccc(OCCCN4CCCC4)cc3)cs2)cc1 | 36 | 390 | – | IC50 [7]: < 10000 nM
53 | CCCCN(CCCC)CCCOc1ccc(-c2nc(-c3ccccc3)sc2C)cc1 | – | 270 | 230 | inhibition in vivo at 20 mg/kg (Rattus norvegicus [4]): 36%; inhibition [10]: 65%
54 | CCCCN(CCCC)CCCOc1ccc(-c2csc(-c3ccc(OC)cc3)n2)cc1 | 4 | 480 | 230 | –
55 | CCCCN(CCCC)CCCOc1ccc(-c2nc3ccccc3[nH]2)cc1 | – | 1800 | 1200 | inhibition in vivo at 40 mg/kg (Rattus norvegicus [5]): 24%
56 | CCCCN(CCCC)CCCOc1ccc(-c2csc(-c3cccnc3)n2)cc1 | 19 | 1650 | 880 | –
57 | CCCCN(CCCC)CCCOc1ccc(-c2csc(C)n2)cc1 | 8 | 1500 | 8400 | –
